Data from US12539333B2, “Tetracycline complexes with sustained activity” (FRAUNHOFER-GESELLSCHAFT ZUR FÖRDERUNG DER ANGEWANDTEN …, priority 2018, dated 2026).
≈ marks a conversion by molar mass, not a printed value. Entries after “also recorded” stand apart in the source; their conditions may differ.

Key:
[1] = Stability in aqueous environment (HPLC)
Experimental: For the stability investigations an Agilent 1200 Series system with a XTerra RP18 5 μm 3.9×150 column (Waters) was utilized. 10 μl sample volume were injected at a flowrate of 1.0 ml/min. For this method was also a gradient program applied. The mobile phase started with a composition of water/methanol (95/5+0.1% TFA) (A) and was shifted over 7 minutes to pure methanol (0.1% TFA) (B). After 3 minutes the mobile phase returned to solvent A within 1 minute. The retention time was 4.8 minutes. For the evaluation and extraction of the chromatograms, the Chem32 software was used.
For the stability investigation, 10 mg samples for minocycline and 20 mg for the complex were weighed into 4 ml glass vials. One of each vial was incubated in 4 ml of PBS pH 7.0 and another vial was exposed to 4 ml of an acidic solution at pH 2.3, which was adjusted with hydrochloric acid. Until the 9th day, samples were taken every day, while the removed volume was not replaced. From there on the intervals were stretched to 3 to 4 days.

S. aureus ATCC 29213 = test: Agar disc diffusion test; type: cell-based, Staphylococcus aureus; settings: 30 μg of minocycline per disc; 35° C., 18 h
Experimental: . The procedure followed the recommendations set by EUCAST.
Test substance was the minocycline complex containing 10 mg/ml minocycline and controls were minocycline dissolved in ethanol (10 mg/ml), and pure ethanol. Solutions were diluted 3:7 with ethanol and immediately thereafter each 10 μl were pipetted to unloaded antibiotic test discs with a diameter of 6 mm (BD, Allschwil, Switzerland), thus each discs (except for ethanol control) contained 30 μg of minocycline. Overnight culture of S. aureus ATCC 29213 was suspended to McFarland 0.5, each 100 μl was spread on Mueller-Hinton-agar plate (Oxoid, Basingstoke, GB). Following the evaporation of the solvent, the test discs were placed on the plates. After incubation at 35° C. for 18 h, the diameters of the inhibition zones were measured.

[2] = test system: Streptococcus gordonii ATCC 10558; test: MIC determination of eluates and calculated effective concentration of minocycline; type: cell-based; settings: for Effective concentration of minocycline, calculated based on the MIC of the eluates (dilutions): S. gord.
Description: (§1) In order to assess the release kinetics and biological activity of the active substances, an approach was chosen taking into consideration the conditions in the oral cavity, namely the flow rate (turnover) and composition of the sulcus in the gingival crevicular fluid (as described in Goodson, J M (2003), Periodontol 2000 31:43-54; Tew, J G et al. (1985), Infect Immun 49:487-93).

[3] = test system: Porphyromonas gingivalis ATCC 33277; test: as above; type: cell-based; settings: for Effective concentration of minocycline, calculated based on the MIC of the eluates (dilutions): P. ging.
Description: as §1

1:2 Complex of Minocycline (Free Base) and Magnesium Stearate [Example 1]
time after which the minocycline peak is still visible ([1]; PBS pH 7.0, 37° C.): ≥ 3 weeks
decay in aqueous environment ([1]; neutral conditions, 37° C.): much slower
diameter of the inhibition zone (S. aureus ATCC 29213): 24 mm

CN(C)c1ccc(O)c2c1C[C@H]1C[C@H]3[C@H](N(C)C)C(O)=C(C(N)=O)C(=O)[C@@]3(O)C(O)=C1C2=O [Minocycline, (4S,4aS,5aR,12aR)-4,7-bis(dimethylamino)-1,10,11,12a-tetrahydroxy-3,12-dioxo-4a,5,5a,6-tetrahydro-4H-tetracene-2-carboxamide]
MIC ([2]; Streptococcus gordonii, ATCC10558, S. gordonii ATCC 10558): 0.5 µg/mL (≈ 1.09 µM)
Effective concentration of minocycline, calculated based on the MIC of the eluates (dilutions) ([2]; eluate 1 h): >16000
Effective concentration of minocycline, calculated based on the MIC of the eluates (dilutions) ([2]; eluate 2 h): 8000
Effective concentration of minocycline, calculated based on the MIC of the eluates (dilutions) ([2]; eluate 4 h): 2000
Effective concentration of minocycline, calculated based on the MIC of the eluates (dilutions) ([2]; eluate 24 h): 250
Effective concentration of minocycline, calculated based on the MIC of the eluates (dilutions) ([2]; eluate 2 d): 62.5
Effective concentration of minocycline, calculated based on the MIC of the eluates (dilutions) ([2]; eluate 7 d): 4
Effective concentration of minocycline, calculated based on the MIC of the eluates (dilutions) ([2]; eluate 14 d): <2
Effective concentration of minocycline, calculated based on the MIC of the eluates (dilutions) ([2]; eluate 21 d): <2
Effective concentration of minocycline, calculated based on the MIC of the eluates (dilutions) ([2]; eluate 28 d): <2
Effective concentration of minocycline, calculated based on the MIC of the eluates (dilutions) ([2]; eluate 35 d): <2
Effective concentration of minocycline, calculated based on the MIC of the eluates (dilutions) ([2]; eluate 42 d): <2
MIC ([3]; Porphyromonas gingivalis, ATCC33277, P. gingivalis ATCC 33277): 0.25 µg/mL (≈ 0.546 µM)
Effective concentration of minocycline, calculated based on the MIC of the eluates (dilutions) ([3]; eluate 1 h): >32000
Effective concentration of minocycline, calculated based on the MIC of the eluates (dilutions) ([3]; eluate 2 h): 2000
Effective concentration of minocycline, calculated based on the MIC of the eluates (dilutions) ([3]; eluate 4 h): 1000
Effective concentration of minocycline, calculated based on the MIC of the eluates (dilutions) ([3]; eluate 24 h): 500
Effective concentration of minocycline, calculated based on the MIC of the eluates (dilutions) ([3]; eluate 2 d): 62.5
Effective concentration of minocycline, calculated based on the MIC of the eluates (dilutions) ([3]; eluate 7 d): 62.5
Effective concentration of minocycline, calculated based on the MIC of the eluates (dilutions) ([3]; eluate 14 d): 4
Effective concentration of minocycline, calculated based on the MIC of the eluates (dilutions) ([3]; eluate 21 d): <1
Effective concentration of minocycline, calculated based on the MIC of the eluates (dilutions) ([3]; eluate 28 d): <1
Effective concentration of minocycline, calculated based on the MIC of the eluates (dilutions) ([3]; eluate 35 d): <1
Effective concentration of minocycline, calculated based on the MIC of the eluates (dilutions) ([3]; eluate 42 d): <1
time within which the minocycline peak vanishes ([1]; PBS pH 7.0, 37° C.): ≤ 3 days
decay in aqueous environment ([1]; acidic conditions pH 2.3, 37° C.): decomposition process is slower; also recorded: more moderate decay
time to complete decomposition ([1]; buffer (PBS) pH 7.1, 37° C.): 3 days
diameter of the inhibition zone (S. aureus ATCC 29213): 26 mm
